Experimental data from ChEMBL document CHEMBL4007454 (J Med Chem, 2017).
pIC50: −log10 of the molar value.

Experiments:
[1] = molecular target: T1, Leucine-rich repeat serine/threonine-protein kinase 2 (Homo sapiens, UniProt Q5S007, G2019S); experiment: Inhibition of recombinant human GST-tagged LRRK2 (970 to 2527 residues) G2019S mutant expressed in baculovirus using fluorescein-ERM as substrate preincubated for 30 mins followed by substrate addition measured after 1 hr by TR-FRET assay
[2] = Efflux ratio of permeability […] in pig LLC-PK1 cells expressing human MDR1; type: ADME, cell-based, Sus scrofa
[3] = Efflux ratio of permeability […] in pig LLC-PK1 cells expressing rat MDR1; type: ADME, cell-based, Sus scrofa
MDR1 (human) = experiment: Apparent permeability in pig LLC-PK1 cells expressing human MDR1; type: ADME, cell-based, Sus scrofa
[4] = Intrinsic clearance in human hepatocytes assessed per million cells at 1 uM after 180 mins by LC-MS/MS analysis; type: ADME, cell-based, Hepatocyte; conditions: read-out: CLH
[5] = Intrinsic clearance in rat hepatocytes assessed per million cells at 1 uM after 180 mins by LC-MS/MS analysis; type: ADME, cell-based, Hepatocyte; conditions: read-out: CLH
[6] = molecular target: T1, Leucine-rich repeat serine/threonine-protein kinase 2; experiment: Inhibition of recombinant human GST-tagged LRRK2 (970 to 2527 residues) G2019S mutant expressed in baculovirus using fluorescein-ERM as substrate preincubated for 30 mins followed by substrate addition measured after 1 hr in presence of 5 mM ATP by TR-FRET assay
[7] = molecular target: T1, Leucine-rich repeat serine/threonine-protein kinase 2; experiment: Inhibition LRRK2 G2019S mutant Ser935 phosphorylation in human SH-SY5Y cells after 90 mins by Western blot analysis; type: cell-based
Cerebrospinal fluid = experiment: Drug level in rat Cerebrospinal fluid at 5 mg/kg, ip; type: ADME, organism-based; conditions: in vivo, read-out: Drug uptake
Plasma = experiment: Unbound plasma concentration in rat at 5 mg/kg, ip; type: ADME, organism-based; conditions: in vivo
[8] = molecular target: Leucine-rich repeat serine/threonine-protein kinase 2 (Homo sapiens, UniProt Q5S007); experiment: Inhibition of wild type human recombinant LRRK2 expressed in baculovirus using fluorescein-ERM as substrate preincubated for 30 mins followed by substrate addition measured after 1 hr by TR-FRET assay
Leucine-rich repeat serine/threonine-protein kinase 2 (Homo sapiens, UniProt Q5S007), sequence (Q5S007 whole entry): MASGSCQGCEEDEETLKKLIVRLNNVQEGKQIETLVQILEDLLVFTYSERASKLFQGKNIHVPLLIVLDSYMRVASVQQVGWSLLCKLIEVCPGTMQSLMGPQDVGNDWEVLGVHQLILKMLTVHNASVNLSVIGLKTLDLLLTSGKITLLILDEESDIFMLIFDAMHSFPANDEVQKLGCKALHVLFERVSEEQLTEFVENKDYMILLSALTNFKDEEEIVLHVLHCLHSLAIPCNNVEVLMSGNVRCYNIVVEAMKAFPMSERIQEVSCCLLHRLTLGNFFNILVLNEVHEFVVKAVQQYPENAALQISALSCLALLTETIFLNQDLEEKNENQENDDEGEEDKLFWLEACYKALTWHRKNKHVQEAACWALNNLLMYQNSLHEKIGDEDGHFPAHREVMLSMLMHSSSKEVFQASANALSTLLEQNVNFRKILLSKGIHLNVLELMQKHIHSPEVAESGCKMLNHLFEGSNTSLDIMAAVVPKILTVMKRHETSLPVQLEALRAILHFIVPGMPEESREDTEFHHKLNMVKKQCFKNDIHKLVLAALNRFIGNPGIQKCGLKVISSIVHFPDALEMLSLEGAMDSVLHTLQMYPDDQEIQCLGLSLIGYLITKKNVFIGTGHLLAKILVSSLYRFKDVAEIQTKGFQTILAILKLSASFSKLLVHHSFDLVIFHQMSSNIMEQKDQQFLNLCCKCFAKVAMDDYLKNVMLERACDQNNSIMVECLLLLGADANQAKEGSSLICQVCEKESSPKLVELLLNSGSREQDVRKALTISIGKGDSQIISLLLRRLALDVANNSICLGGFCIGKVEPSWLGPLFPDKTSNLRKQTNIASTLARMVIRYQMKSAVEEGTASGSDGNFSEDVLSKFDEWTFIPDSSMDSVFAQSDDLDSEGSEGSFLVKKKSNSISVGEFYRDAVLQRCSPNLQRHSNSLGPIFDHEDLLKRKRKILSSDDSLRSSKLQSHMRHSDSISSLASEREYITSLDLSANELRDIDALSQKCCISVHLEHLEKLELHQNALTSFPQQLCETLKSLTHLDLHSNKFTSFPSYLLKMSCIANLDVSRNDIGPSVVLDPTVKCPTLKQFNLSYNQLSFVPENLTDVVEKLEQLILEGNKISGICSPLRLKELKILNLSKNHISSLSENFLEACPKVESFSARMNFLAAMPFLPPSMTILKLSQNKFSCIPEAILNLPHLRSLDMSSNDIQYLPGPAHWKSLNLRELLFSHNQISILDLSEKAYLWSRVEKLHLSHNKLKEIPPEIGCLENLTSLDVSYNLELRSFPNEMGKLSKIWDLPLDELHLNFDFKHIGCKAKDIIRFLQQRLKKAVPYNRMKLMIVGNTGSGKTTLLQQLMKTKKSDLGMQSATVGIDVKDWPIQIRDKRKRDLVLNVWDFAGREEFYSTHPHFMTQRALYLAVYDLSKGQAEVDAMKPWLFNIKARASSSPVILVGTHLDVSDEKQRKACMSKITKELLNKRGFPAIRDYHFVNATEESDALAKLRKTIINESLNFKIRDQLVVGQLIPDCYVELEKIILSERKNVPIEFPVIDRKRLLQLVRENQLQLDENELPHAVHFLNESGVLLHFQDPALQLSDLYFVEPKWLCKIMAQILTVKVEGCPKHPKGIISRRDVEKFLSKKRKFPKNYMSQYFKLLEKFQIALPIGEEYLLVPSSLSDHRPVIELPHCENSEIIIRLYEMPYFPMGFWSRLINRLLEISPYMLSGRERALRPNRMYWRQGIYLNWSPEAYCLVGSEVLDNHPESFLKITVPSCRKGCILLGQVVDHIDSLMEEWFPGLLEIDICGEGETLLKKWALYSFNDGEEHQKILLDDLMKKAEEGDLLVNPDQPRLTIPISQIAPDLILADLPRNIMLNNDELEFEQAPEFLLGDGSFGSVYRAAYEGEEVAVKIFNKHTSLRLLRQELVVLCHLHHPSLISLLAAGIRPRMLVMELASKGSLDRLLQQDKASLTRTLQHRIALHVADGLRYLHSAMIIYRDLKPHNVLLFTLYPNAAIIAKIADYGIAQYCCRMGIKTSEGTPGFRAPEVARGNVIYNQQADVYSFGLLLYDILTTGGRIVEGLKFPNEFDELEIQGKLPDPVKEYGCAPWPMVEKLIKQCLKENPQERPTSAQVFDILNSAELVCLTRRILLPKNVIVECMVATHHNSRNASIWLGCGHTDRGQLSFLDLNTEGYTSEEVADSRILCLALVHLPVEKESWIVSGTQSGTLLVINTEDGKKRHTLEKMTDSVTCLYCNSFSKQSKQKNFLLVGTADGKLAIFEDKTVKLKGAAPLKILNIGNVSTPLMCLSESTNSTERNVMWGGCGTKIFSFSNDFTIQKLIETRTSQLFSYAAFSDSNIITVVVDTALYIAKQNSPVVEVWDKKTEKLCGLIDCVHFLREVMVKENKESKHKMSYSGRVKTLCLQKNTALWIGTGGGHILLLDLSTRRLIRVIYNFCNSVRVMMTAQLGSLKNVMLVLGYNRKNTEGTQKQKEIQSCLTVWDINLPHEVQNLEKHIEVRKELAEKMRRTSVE

[9] = molecular target: T2, Dual specificity protein kinase TTK (Homo sapiens) (UniProt P33981); experiment: Inhibition of recombinant human full length GST-tagged TTK expressed in baculovirus; conditions: concentration not given here
T2 sequence (whole entry): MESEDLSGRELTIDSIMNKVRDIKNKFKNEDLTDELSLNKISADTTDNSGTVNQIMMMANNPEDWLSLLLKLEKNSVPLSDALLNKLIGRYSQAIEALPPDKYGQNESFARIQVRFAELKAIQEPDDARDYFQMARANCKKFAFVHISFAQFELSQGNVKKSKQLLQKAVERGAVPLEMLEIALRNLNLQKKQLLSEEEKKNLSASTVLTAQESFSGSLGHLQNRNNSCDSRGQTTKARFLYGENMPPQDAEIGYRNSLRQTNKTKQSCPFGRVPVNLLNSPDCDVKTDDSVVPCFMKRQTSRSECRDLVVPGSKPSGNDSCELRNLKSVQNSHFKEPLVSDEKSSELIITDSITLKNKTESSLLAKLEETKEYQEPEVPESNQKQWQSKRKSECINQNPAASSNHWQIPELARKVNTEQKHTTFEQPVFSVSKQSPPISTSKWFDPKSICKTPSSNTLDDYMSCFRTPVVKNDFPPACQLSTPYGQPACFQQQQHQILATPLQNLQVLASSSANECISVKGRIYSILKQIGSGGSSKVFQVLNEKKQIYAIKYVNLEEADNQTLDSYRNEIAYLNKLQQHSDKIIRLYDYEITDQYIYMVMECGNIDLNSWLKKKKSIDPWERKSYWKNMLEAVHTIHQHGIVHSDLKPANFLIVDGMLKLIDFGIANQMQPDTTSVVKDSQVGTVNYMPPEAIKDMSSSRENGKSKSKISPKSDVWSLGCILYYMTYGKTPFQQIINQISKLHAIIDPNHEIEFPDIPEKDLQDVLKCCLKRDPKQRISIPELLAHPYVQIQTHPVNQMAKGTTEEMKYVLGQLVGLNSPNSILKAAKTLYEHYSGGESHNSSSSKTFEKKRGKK

[10] = molecular target: Mitogen-activated protein kinase 1 (Homo sapiens) (UniProt P28482); experiment: Inhibition of recombinant human full length GST-tagged ERK2 expressed in Escherichia coli at 1 uM
Mitogen-activated protein kinase 1 (Homo sapiens), sequence (P28482 whole entry): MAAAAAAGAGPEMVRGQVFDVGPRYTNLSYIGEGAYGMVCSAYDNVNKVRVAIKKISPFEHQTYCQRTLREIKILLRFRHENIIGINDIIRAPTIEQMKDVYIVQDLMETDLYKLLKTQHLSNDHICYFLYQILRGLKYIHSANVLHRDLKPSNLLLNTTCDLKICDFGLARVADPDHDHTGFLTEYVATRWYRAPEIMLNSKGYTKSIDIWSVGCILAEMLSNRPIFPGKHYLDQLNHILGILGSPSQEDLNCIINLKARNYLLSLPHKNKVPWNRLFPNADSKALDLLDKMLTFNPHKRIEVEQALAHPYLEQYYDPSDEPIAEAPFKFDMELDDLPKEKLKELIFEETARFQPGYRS

[11] = AUC (0 to 8 hrs) in Han-Wistar rat at 2 mg/kg, iv measured after 2 to 480 mins by LC-MS/MS analysis; type: ADME, organism-based; set-up: time < 8 hr, dose 2 mg/kg, route intravenous; conditions: in vivo
[12] = Half life in Han-Wistar rat at 2 mg/kg, iv measured after 2 to 480 mins by LC-MS/MS analysis; type: ADME, organism-based; conditions: in vivo

T1 sequence (Q5S007 whole entry G2019S, the tested form may be a part): as the sequence (Q5S007 whole entry) above, with G2019S counted along it

SMILES | pIC50 [1] | Ratio [2] | Ratio [3] | Papp (MDR1 (human)) [×10⁻⁶ cm/s] | hepatocyte CLint at 1 µM [4] [µL/min/1e6 cells] | hepatocyte CLint at 1 µM [5] [µL/min/1e6 cells] | pIC50 [7] | other results
CC(C)Oc1ccc2[nH]nc(-c3ccnc(N4C[C@@H](F)[C@H](F)C4)c3)c2c1 | 8.18 | 0.4 | 0.7 | 31 | 25 | 39 | 6.47 | pIC50 [6]: 6.89
c1ccc2c(-c3ccnc(N4CCOCC4)c3)n[nH]c2c1 | 7.92 | 0.3 | 0.2 | 19 | – | – | – | –
CC(C)Oc1ccc2[nH]nc(-c3ccnc(N4CCN(C)CC4)c3)c2c1 | 9.10 | 0.6 | 1.7 | 27 | 7 | 36 | 7.28 | –
N#Cc1ccc2[nH]nc(-c3ccnc(N4CCOCC4)c3)c2c1 | 7.19 | 0.7 | 1.3 | 34 | – | – | – | –
Cn1cc(-c2ccc3[nH]nc(-c4ccnc(N5CCOCC5)c4)c3c2)cn1 | – | 1.5 | 6.3 | 38 | 7 | 31 | – | –
CC(C)Oc1ccc2[nH]nc(-c3ccnc(N4CCN(S(C)(=O)=O)CC4)c3)c2c1 | – | 0.4 | 0.6 | 29 | 7 | 32 | 7.08 | pIC50 [6]: 7.85
CN(c1cccc(S(C)(=O)=O)c1)c1ccc2[nH]nc(-c3ccncc3)c2c1 | – | – | – | – | – | – | – | concentration (Cerebrospinal fluid): 36 nM; Cp(f) (Plasma): 42 nM; pIC50 [8]: 7.36
CC(C)Oc1ccc2[nH]nc(-c3ccnc(N4CCOCC4)c3)c2c1 | 9.15 | 0.5 | 0.7 | 30 | 22 | 49 | 7.37 | inhibition [9]: 91%; inhibition [10]: 41%; AUC(0-t) at 8 h [11]: 1 µM·h; half-life [12]: 1 h
C[C@H]1CN(c2cc(-c3n[nH]c4ccc(OC5(C)CC5)cc34)ncn2)CCO1 | – | 0.5 | 0.5 | 27 | 7 | 26 | 8.42 | pIC50 [6]: 7.12
CC1(Oc2ccc3[nH]nc(-c4cc(N5CCOCC5)ncn4)c3c2)CC1 | – | – | – | 35 | 8 | 18 | – | –
c1cncc(-c2n[nH]c3ccccc23)c1 | 5.91 | – | – | – | – | – | – | –
c1ccc2c(-c3cc(N4CCOCC4)ncn3)n[nH]c2c1 | – | – | – | – | 9 | 30 | – | –
C[C@@H]1CN(c2cc(-c3n[nH]c4ccc(OC5(C)CC5)cc34)ncn2)CCO1 | 8.70 | 0.3 | 0.4 | 28 | 7 | 15 | 8.30 | pIC50 [6]: 7.89
c1cnnc(-c2ccc3[nH]nc(-c4ccnc(N5CCOCC5)c4)c3c2)c1 | – | 16 | 38 | 32 | 10 | 6 | – | –
c1ccc2c(-c3ccncc3)n[nH]c2c1 | 6.04 | – | – | – | – | – | – | –
c1ccc2c(-c3cncc(N4CCOCC4)c3)n[nH]c2c1 | 6.59 | 0.4 | 0.5 | 38 | – | – | – | –
c1ccc(-c2n[nH]c3ccccc23)nc1 | 5.21 | – | – | – | – | – | – | –
O=S(=O)(c1ccc2[nH]nc(-c3ccnc(N4CCOCC4)c3)c2c1)C1CC1 | – | 20 | 44 | 35 | 7.3 | 15 | – | –
CC(C)Oc1ccc2[nH]nc(-c3cc(N4CCOCC4)ncn3)c2c1 | – | 0.6 | 0.4 | 38 | 6 | 13 | 7.39 | –
Nc1cc(-c2n[nH]c3ccc(Nc4ccccc4)cc23)ccn1 | – | – | – | – | – | – | – | pIC50 [8]: 6.14
COCCNc1cc(-c2n[nH]c3ccccc23)ccn1 | 7.01 | – | – | – | – | – | – | –
c1cc(-c2n[nH]c3ccc(C4CC4)cc23)cc(N2CCOCC2)n1 | 7.89 | 0.2 | 0.1 | 25 | 31 | 52 | – | –
COc1ccc2[nH]nc(-c3ccnc(N4CCOCC4)c3)c2c1 | 7.82 | 0.2 | 0.4 | 33 | 23 | 28 | – | –
c1cc(-c2n[nH]c3ccc(OC4CC4)cc23)cc(N2CCOCC2)n1 | 7.39 | 0.3 | 0.3 | 31 | 37 | 32 | – | –
CC1(Oc2ccc3[nH]nc(-c4cc(N5CCN(S(C)(=O)=O)CC5)ncn4)c3c2)CC1 | 8.66 | 2.2 | 12 | 30 | – | 10 | 8.12 | –
CC(C)Oc1ccc2[nH]nc(-c3ccnc(N4CCN(C)C(=O)C4)c3)c2c1 | – | 3.2 | 15 | 38 | 16 | 38 | 7.23 | pIC50 [6]: 7.04
CC(C)Oc1ccc2[nH]nc(-c3ccnc(N4CCC(n5cnnc5)CC4)c3)c2c1 | – | 40 | 41 | 46 | 2 | 19 | 6.71 | pIC50 [6]: 7.16
